Measured values taken from patent US20050065596A1, “Stents capable of controllably releasing histone deacetylase inhibitors” (priority 2002, published 2005).

How the values were obtained:
Assay type in all cases: cell-based
Human aortic SMCs [1] = test: Morphological analysis of human aortic SMCs after one day incubation with drug; conditions: FIG. 12; for morphological changes observed in a 40× microscope field: one day incubation, 100 nM and 500 nM TSA, 10 nM RPM, 50 nM Paclitaxel
Procedure: (§1) Human aortic SMCs were obtained from BioWhittaker Molecular Applications, Inc. (Clonetics, CC-2571), cultured in Smooth Muscle Medium-2 (BioWhittaker Molecular Applications, Inc., CC-3182), and maintained at 37° C. in humidified 95% air/5% CO2. Human aortic SMCs of passages 8-9 were used in the following experiments.
(§2) Human aortic SMCs cells were seeded, at a density of 6×10^3 cells/well, in a 24-well plate (about 3×10^3 cells/cm^2, quadruplicates). Following cell attachment for 24 hours, the above drugs were added to the cells, to achieve the following final concentrations: 100 nM and 500 nM of TSA, 10 nM of RPM, and 50 nM of Paclitaxel.
Following a one day incubation with the drug, the morphological changes in the cells were evaluated under a microscope.

Human aortic SMCs [2] = test: MTT assay of cell proliferation
Procedure: as §1
(§3) Cell proliferation was measured by MTT assay and cell counting.
as §2
Following three additional days of incubation, 50 μl MTT (methylthiazoletetrazolium, 5 mg/ml in sterile H2O) were added in 0.5 ml medium to each well, and the cells were incubated at 37° C. for 4 hours. The medium was then aspirated, and the cells were dissolved in 300 μl 0.1 N HCl/isopropanol, mixed thoroughly, and a 100 μl portion of the mixture was transferred into a 96-well plate;
The 96-well plate was applied to a micro-plate reader and the absorbance at 570 nm was read. The average reading of wells containing only medium was set as the Control. For each sample, the proliferation rate was determined by the following equation: (Reading/Control)×100=Proliferation Rate (% of Control).

Human aortic SMCs [3] = test: Cell counting (growth curves); conditions: 50 nM TSA; days 0-14, medium with TSA replaced every 2-3 days; vs control cells; FIG. 14
Procedure: as §1, §3
Human aortic SMCs cells were seeded, at a density of […], in a 24-well plate (about 1.5×10^3 cells/cm^2, in triplicates). Following cell attachment for 24 hours, TSA was added to achieve a final concentration of 50 nM.
Every 2-3 days, the medium was removed and replaced with a fresh medium containing TSA. Control cells were treated with medium without TSA.
On days 0, 1, 2, 3, 6, 9, and 14 post-treatment, the cells were trypsinized and counted with a hemacytometer.

Compound | morphological changes observed in a 40× microscope field (Human aortic SMCs [1]) | cytotoxicity on SMCs (Human aortic SMCs [2]; 50 nM Paclitaxel, before the application of MTT assay) | nature of the inhibitory effect on SMCs (Human aortic SMCs [1]; concluded from the morphological analysis) | inhibitory effect on the growth of the human SMCs (proliferation rate, MTT) (Human aortic SMCs [2]; 100 nM TSA and 500 nM TSA, four days incubation, FIG. 13) | continuous effect on SMCs growth (growth curves, cell counting) (Human aortic SMCs [3])
CC(=O)O[C@H]1C(=O)[C@@]2(C)[C@H]([C@H](OC(=O)c3ccccc3)[C@]3(O)C[C@H](OC(=O)[C@H](O)[C@@H](NC(=O)c4ccccc4)c4ccccc4)C(C)=C1C3(C)C)[C@]1(OC(C)=O)CO[C@@H]1C[C@@H]2O [Paclitaxel] | Rounded up pro-apoptotic cells appeared | high cytotoxicity on SMCs and caused cell death | – | – | –
CC(/C=C/C(=O)NO)=C\[C@@H](C)C(=O)c1ccc(N(C)C)cc1 [TSA, Trichostatin A] | No morphological changes | – | mainly cytostatic | inhibits SMC proliferation in vitro in a dose-dependent mainer | significant inhibitory effect
